Measurements reported in US12365696B2, “Small-molecule focal adhesion kinase (FAK) inhibitors” (DANA-FARBER CANCER INSTITUTE, INC., priority 2019, dated 2025).

What was measured:
Test in all cases: KINOMEscan
Assay type in all cases: binding
BUB1 = BUB1 (Homo sapiens (Human), UniProt O43683); details: BUB1, 10000 nM; read-out: Percent Control
MET(M1250T) = MET(M1250T) (Homo sapiens (Human), UniProt P08581, M1250T); details: 10000 nM, read-out: Percent Control
ERK5 = ERK5 (Homo sapiens (Human), UniProt Q13164); details: ERK5, 10000 nM; read-out: Percent Control
CHEK2 = CHEK2 (Homo sapiens (Human), UniProt O96017); details: CHEK2, 10000 nM; read-out: Percent Control
CHEK2, sequence (O96017 whole entry): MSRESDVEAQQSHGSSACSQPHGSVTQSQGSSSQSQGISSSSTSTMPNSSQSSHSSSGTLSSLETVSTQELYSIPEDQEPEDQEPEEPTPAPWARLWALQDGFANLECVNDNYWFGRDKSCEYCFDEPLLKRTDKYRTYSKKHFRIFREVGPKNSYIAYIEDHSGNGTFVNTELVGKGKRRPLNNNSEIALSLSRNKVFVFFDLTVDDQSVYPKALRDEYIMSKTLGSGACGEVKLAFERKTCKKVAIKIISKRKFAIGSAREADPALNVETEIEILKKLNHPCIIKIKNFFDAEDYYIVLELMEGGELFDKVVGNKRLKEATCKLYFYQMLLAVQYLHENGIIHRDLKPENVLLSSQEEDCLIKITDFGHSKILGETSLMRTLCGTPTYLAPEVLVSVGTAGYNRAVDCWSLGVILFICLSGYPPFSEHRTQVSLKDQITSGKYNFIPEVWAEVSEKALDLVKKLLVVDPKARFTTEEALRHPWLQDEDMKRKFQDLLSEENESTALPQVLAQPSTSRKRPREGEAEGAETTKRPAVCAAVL

NEK6 = NEK6 (Homo sapiens (Human), UniProt Q9HC98); details: NEK6, 10000 nM; read-out: Percent Control
PKAC-beta = PKAC-beta (Homo sapiens (Human), UniProt P22694); details: 10000 nM, read-out: Percent Control
CIT = CIT (Homo sapiens (Human), UniProt O14578); details: 10000 nM, read-out: Percent Control
PFTK1 = PFTK1 (Homo sapiens (Human), UniProt O94921); details: PFTK1, 10000 nM; read-out: Percent Control
PFTK1, sequence (O94921 whole entry): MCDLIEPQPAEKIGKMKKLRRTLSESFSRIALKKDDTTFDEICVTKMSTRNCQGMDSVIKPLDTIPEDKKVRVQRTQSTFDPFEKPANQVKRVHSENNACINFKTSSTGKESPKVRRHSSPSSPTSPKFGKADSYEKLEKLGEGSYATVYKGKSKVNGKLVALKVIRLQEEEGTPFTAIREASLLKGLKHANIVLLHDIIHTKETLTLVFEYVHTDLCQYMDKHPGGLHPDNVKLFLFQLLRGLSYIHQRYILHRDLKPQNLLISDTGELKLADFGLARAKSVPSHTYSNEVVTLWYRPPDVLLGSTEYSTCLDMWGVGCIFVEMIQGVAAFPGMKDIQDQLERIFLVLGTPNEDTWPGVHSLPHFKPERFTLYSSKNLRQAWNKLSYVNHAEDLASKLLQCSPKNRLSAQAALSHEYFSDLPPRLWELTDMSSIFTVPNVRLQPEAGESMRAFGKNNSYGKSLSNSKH

[1] = biological target: JAK1(JH1domain-catalytic) (Homo sapiens (Human), UniProt P23458); details: 10000 nM, read-out: Percent Control
JAK1(JH1domain-catalytic), sequence (P23458 875-1153): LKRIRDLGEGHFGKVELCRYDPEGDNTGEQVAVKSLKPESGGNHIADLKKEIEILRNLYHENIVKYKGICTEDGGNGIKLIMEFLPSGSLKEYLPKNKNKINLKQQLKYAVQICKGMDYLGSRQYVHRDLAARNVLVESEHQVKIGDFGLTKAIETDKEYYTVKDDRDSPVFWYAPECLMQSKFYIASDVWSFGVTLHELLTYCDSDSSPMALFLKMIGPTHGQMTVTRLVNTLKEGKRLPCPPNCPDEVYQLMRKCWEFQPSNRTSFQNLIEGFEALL

PRKD2 = PRKD2 (Homo sapiens (Human), UniProt Q9BZL6); details: PRKD2, 10000 nM; read-out: Percent Control
ACVR1B = ACVR1B (Homo sapiens (Human), UniProt P36896); details: 10000 nM, read-out: Percent Control
EPHA4 = EPHA4 (Homo sapiens (Human), UniProt P54764); details: EPHA4, 10000 nM; read-out: Percent Control
FLT3(N841I) = FLT3(N841I) (Homo sapiens (Human), UniProt P36888, N841I); details: 10000 nM, read-out: Percent Control
DCAMKL3 = DCAMKL3 (Homo sapiens (Human), UniProt Q9C098); details: DCAMKL3, 10000 nM; read-out: Percent Control
TNIK = TNIK (Homo sapiens (Human), UniProt Q9UKE5); details: 10000 nM, read-out: Percent Control
INSRR = INSRR (Homo sapiens (Human), UniProt P14616); details: 10000 nM, read-out: Percent Control
[2] = biological target: TYK2(JH1domain-catalytic) (Homo sapiens (Human), UniProt P29597); details: 10000 nM, read-out: Percent Control
TYK2(JH1domain-catalytic), sequence (P29597 897-1176): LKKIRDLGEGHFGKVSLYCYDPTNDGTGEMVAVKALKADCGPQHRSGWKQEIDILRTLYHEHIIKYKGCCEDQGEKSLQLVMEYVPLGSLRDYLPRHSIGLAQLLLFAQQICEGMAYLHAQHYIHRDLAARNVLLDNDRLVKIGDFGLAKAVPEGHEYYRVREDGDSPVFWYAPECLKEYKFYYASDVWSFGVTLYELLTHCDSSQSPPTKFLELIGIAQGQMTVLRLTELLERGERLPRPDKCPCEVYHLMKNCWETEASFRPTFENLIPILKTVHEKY

PHKG2 = PHKG2 (Homo sapiens (Human), UniProt P15735); details: PHKG2, 10000 nM; read-out: Percent Control
PRKCH = PRKCH (Homo sapiens (Human), UniProt P24723); details: 10000 nM, read-out: Percent Control
TNK1 = TNK1 (Homo sapiens (Human), UniProt Q13470); details: TNK1, 10000 nM; read-out: Percent Control
TNK1, sequence (Q13470 whole entry): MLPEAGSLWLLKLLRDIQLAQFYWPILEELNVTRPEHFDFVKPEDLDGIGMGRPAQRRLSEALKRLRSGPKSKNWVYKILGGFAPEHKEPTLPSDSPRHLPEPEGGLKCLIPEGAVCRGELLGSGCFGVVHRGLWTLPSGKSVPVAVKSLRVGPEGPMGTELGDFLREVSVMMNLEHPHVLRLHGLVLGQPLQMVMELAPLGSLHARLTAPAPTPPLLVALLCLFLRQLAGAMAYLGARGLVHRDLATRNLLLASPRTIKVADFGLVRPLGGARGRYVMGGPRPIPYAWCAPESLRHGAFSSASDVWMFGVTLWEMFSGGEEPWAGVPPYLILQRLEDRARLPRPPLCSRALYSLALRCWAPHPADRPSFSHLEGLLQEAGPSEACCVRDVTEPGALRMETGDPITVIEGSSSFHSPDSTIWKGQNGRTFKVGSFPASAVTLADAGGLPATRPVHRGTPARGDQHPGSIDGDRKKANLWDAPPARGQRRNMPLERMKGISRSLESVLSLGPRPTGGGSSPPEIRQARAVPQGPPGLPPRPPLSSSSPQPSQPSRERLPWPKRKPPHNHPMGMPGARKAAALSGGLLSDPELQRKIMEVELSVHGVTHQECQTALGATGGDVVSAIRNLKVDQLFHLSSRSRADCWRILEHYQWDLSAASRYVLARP

NEK1 = NEK1 (Homo sapiens (Human), UniProt Q96PY6); details: NEK1, 10000 nM; read-out: Percent Control
RET(V804L) = RET(V804L) (Homo sapiens (Human), UniProt P07949, V804L); details: 10000 nM, read-out: Percent Control
RET(V804L), sequence (P07949 29-1114 V804L): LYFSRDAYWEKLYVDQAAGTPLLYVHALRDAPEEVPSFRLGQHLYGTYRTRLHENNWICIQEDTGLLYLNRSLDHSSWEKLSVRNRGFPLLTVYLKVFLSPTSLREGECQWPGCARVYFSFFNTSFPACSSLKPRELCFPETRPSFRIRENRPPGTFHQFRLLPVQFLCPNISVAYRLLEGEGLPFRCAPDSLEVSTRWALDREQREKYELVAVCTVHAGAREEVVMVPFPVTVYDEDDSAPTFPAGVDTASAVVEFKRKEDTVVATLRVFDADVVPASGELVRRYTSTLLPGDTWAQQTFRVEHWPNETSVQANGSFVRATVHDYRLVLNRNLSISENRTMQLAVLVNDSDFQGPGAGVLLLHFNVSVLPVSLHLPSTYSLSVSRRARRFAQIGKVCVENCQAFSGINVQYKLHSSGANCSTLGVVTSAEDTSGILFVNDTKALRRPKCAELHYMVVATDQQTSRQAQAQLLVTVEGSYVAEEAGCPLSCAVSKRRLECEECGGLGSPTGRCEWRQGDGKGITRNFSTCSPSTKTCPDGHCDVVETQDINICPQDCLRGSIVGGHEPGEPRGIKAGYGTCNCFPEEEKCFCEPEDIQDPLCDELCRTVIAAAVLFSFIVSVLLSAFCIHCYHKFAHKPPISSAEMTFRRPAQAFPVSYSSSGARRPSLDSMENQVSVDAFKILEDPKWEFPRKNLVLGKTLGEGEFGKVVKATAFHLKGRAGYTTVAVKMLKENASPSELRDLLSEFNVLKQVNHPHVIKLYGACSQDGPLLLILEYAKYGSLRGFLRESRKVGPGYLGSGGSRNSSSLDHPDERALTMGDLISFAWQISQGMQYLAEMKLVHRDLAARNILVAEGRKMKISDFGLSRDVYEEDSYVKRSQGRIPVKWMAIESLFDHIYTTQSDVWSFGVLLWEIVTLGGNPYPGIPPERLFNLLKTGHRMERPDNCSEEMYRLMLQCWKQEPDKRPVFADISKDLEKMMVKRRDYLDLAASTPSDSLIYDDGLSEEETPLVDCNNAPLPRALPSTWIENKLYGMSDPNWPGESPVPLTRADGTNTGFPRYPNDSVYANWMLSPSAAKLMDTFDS

FLT3(ITD) = details: 10000 nM
CHEK1 = CHEK1 (Homo sapiens (Human), UniProt O14757); details: CHEK1, 10000 nM; read-out: Percent Control
CHEK1, sequence (O14757 whole entry): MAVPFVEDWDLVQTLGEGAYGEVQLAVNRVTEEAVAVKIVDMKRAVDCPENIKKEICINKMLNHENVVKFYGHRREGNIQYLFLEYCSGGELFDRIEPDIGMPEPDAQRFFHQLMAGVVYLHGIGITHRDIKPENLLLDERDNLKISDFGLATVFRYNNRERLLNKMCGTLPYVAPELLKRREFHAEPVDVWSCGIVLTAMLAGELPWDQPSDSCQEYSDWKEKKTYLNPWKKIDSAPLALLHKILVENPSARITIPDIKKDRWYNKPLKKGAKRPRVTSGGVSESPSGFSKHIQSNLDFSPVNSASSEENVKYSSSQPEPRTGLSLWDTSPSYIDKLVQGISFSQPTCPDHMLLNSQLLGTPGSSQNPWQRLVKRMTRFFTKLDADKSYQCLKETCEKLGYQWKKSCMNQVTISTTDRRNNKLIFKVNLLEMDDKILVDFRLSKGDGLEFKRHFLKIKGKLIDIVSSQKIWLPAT

YANK3 = YANK3 (Homo sapiens (Human), UniProt Q86UX6); details: YANK3, 10000 nM; read-out: Percent Control
ALK(L1196M) = ALK(L1196M) (Homo sapiens (Human), UniProt Q9UM73, L1196M); details: 10000 nM, read-out: Percent Control
MTOR = MTOR (Homo sapiens (Human), UniProt P42345); details: 10000 nM, read-out: Percent Control
PIK3CA(E545K) = PIK3CA(E545K) (Homo sapiens (Human), UniProt P42336, E545K); details: 10000 nM, read-out: Percent Control
TSSK1B = TSSK1B (Homo sapiens (Human), UniProt Q9BXA7); details: 10000 nM, read-out: Percent Control
[3] = biological target: ABL1(Q252H)-phosphorylated (Homo sapiens (Human), UniProt P00519, Q252H); details: 10000 nM, read-out: Percent Control
ALK = ALK (Homo sapiens (Human), UniProt Q9UM73); details: 10000 nM, read-out: Percent Control
LIMK1 = LIMK1 (Homo sapiens (Human), UniProt P53667); details: LIMK1, 10000 nM; read-out: Percent Control
LIMK1, sequence (P53667 whole entry): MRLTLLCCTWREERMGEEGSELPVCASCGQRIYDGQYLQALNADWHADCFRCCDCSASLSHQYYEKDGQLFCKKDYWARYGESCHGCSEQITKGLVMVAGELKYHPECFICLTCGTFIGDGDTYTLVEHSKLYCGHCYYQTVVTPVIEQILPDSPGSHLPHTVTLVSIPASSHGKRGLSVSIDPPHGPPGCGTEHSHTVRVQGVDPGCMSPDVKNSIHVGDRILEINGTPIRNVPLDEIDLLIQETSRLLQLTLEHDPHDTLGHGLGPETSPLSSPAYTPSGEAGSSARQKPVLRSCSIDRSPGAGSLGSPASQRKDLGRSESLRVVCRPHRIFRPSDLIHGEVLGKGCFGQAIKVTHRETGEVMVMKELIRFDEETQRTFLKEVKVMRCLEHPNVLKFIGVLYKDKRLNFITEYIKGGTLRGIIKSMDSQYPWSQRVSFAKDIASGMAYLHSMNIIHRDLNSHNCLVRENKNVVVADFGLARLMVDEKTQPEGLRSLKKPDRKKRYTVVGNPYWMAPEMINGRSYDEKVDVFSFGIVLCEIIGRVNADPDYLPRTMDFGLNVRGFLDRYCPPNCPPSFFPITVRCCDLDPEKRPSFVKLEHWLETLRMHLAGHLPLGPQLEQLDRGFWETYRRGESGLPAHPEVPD

ROCK2 = ROCK2 (Homo sapiens (Human), UniProt O75116); details: ROCK2, 10000 nM; read-out: Percent Control
RET(V804M) = RET(V804M) (Homo sapiens (Human), UniProt P07949, V804M); details: 10000 nM, read-out: Percent Control
STK35 = STK35 (Homo sapiens (Human), UniProt Q8TDR2); details: STK35, 10000 nM; read-out: Percent Control
STK35, sequence (Q8TDR2 whole entry): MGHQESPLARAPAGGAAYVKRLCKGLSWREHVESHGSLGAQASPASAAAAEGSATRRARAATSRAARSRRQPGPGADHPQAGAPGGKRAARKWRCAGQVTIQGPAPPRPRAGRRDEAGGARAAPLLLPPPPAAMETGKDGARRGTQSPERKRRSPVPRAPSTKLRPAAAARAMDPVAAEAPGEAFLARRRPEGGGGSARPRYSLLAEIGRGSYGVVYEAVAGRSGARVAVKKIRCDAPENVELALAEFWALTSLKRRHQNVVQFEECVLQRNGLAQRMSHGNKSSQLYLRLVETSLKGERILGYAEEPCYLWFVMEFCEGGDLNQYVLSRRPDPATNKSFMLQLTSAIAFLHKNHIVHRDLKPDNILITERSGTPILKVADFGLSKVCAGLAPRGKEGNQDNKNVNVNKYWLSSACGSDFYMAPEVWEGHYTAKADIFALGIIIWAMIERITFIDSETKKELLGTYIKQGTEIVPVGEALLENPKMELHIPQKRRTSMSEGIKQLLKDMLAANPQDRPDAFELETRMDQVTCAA

Row | Structure (SMILES) | remaining binding at 10 µM (BUB1) [%] | remaining binding at 10 µM (MET(M1250T)) [%] | remaining binding at 10 µM (ERK5) [%] | remaining binding at 10 µM (CHEK2) [%] | remaining binding at 10 µM (NEK6) [%] | remaining binding at 10 µM (PKAC-beta) [%] | remaining binding at 10 µM (CIT) [%] | remaining binding at 10 µM (PFTK1) [%] | remaining binding at 10 µM [1] [%] | remaining binding at 10 µM (PRKD2) [%] | remaining binding at 10 µM (ACVR1B) [%] | remaining binding at 10 µM (EPHA4) [%] | remaining binding at 10 µM (FLT3(N841I)) [%] | remaining binding at 10 µM (DCAMKL3) [%] | remaining binding at 10 µM (TNIK) [%] | remaining binding at 10 µM (INSRR) [%] | remaining binding at 10 µM [2] [%] | remaining binding at 10 µM (PHKG2) [%] | remaining binding at 10 µM (PRKCH) [%] | remaining binding at 10 µM (TNK1) [%] | other results
1 | COc1cc(N2CCC(N3CCN(C)CC3)CC2)ccc1Nc1ncc2c(n1)N(C)c1sc(C)nc1C(=O)N2 [Compound 3, 6-((2-methoxy-4-(4-(4-methylpiperazin-1-yl)piperidin-1-yl)phenyl)amino)-2,4-dimethyl-4,9-dihydro-10H-pyrimido[5,4-b]thiazolo[5,4-e][1,4]diazepin-10-one] | 100 | 82 | 80 | 72 | 78 | 82 | 73 | 90 | 85 | 72 | 80 | 87 | 98 | 81 | 94 | 84 | 84 | 69 | 89 | 53 | remaining binding at 10 µM (NEK1): 78%; remaining binding at 10 µM (RET(V804L)): 95%; Percent Control (FLT3(ITD)): 83%; remaining binding at 10 µM (CHEK1): 79%; remaining binding at 10 µM (YANK3): 68%; remaining binding at 10 µM (ALK(L1196M)): 80%; remaining binding at 10 µM (MTOR): 85%; remaining binding at 10 µM (PIK3CA(E545K)): 90%; remaining binding at 10 µM (TSSK1B): 74%; remaining binding at 10 µM [3]: 9.7%; remaining binding at 10 µM (ALK): 100%; remaining binding at 10 µM (LIMK1): 96%; remaining binding at 10 µM (ROCK2): 100%; remaining binding at 10 µM (RET(V804M)): 100%; remaining binding at 10 µM (STK35): 89%
2 | COc1cc(N2CCC(N3CCN(C)CC3)CC2)ccc1Nc1ncc2c(n1)N(C)c1sc(C)nc1C(=O)N2C [Compound 5, 6-((2-methoxy-4-(4-(4-methylpiperazin-1-yl)piperidin-1-yl)phenyl)amino)-2,4,9-trimethyl-4,9-dihydro-10H-pyrimido[5,4-b]thiazolo[5,4-e][1,4]diazepin-10-one] | 100 | 100 | 30 | 100 | 90 | 100 | 98 | 100 | 100 | 46 | 95 | 68 | 83 | 86 | 99 | 22 | 97 | 38 | 94 | 10 | remaining binding at 10 µM (NEK1): 97%; remaining binding at 10 µM (RET(V804L)): 93%; Percent Control (FLT3(ITD)): 100%; remaining binding at 10 µM (CHEK1): 59%; remaining binding at 10 µM (YANK3): 98%; remaining binding at 10 µM (ALK(L1196M)): 79%; remaining binding at 10 µM (MTOR): 31%; remaining binding at 10 µM (PIK3CA(E545K)): 100%; remaining binding at 10 µM (TSSK1B): 68%; remaining binding at 10 µM [3]: 100%; remaining binding at 10 µM (ALK): 99%; remaining binding at 10 µM (LIMK1): 95%; remaining binding at 10 µM (ROCK2): 100%; remaining binding at 10 µM (RET(V804M)): 73%; remaining binding at 10 µM (STK35): 100%
